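Compound exposure: 48 hours, 5 concentrations, 96-well plates. TGI is the concentration that stops growth completely.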

Among the test systems are RPMI-8226 leukemia; U251 CNS; MOLT-4 leukemia; MDA-MB-435; MDA-N; MCF7 breast; NCI-H226 lung; 786-0 renal; UACC-257 melanoma; NCI-H460 lung; LOX IMVI melanoma.
Assay in all cases: inhibition of tumour cell growth, NCI panel, 48 h

Take `CC1(C)C=[N+]([O-])C(C)(C)N1O`: the TGI in the test with RPMI-8226 leukemia, in the test on U251 CNS, with MOLT-4 leukemia, with MDA-MB-435, in the test on MDA-N and in the test on MCF7 breast was more than 10 µM each time. Moreover, the TGI with NCI-H226 lung, in the test on 786-0 renal, with UACC-257 melanoma and with NCI-H460 lung was more than 10 µM each time.

Consider `N#C/C(=C1/c2cc([N+](=O)[O-])ccc2-c2c1cc([N+](=O)[O-])cc2[N+](=O)[O-])N1CCCCC1`, for which the TGI in the test with RPMI-8226 leukemia, in the test on U251 CNS, in the test with MOLT-4 leukemia, in the test with MDA-MB-435, in the test on MDA-N and in the test on MCF7 breast was more than 100 µM each time. In addition, the TGI with NCI-H226 lung, in the test on 786-0 renal and with UACC-257 melanoma was more than 100 µM in each case.

With `COc1cc2oc(-c3ccc4c(c3)OCO4)c(OC)c(=O)c2c(O)c1OC`, the TGI with U251 CNS, with MOLT-4 leukemia, with LOX IMVI melanoma, in the test on MDA-MB-435, with MDA-N and with MCF7 breast was more than 50 µM each time. The TGI in the test on NCI-H226 lung, in the test with 786-0 renal, with UACC-257 melanoma and with NCI-H460 lung was more than 50 µM each time.

On to `O=[N+]([O-])c1ccc2nc(/C=C(\O)c3ccc(Cl)cc3)c(/C=C(\O)c3ccc(Cl)cc3)nc2c1`, for which the TGI with U251 CNS, with MOLT-4 leukemia, with MDA-MB-435, in the test on MDA-N, with MCF7 breast and in the test on NCI-H226 lung was more than 100 µM each time. Also, the TGI in the test with 786-0 renal, in the test on UACC-257 melanoma and in the test on NCI-H460 lung was more than 100 µM throughout.

For the molecule `NC1c2c(Cl)sc(Cl)c2C(=O)C1O` (stereo unspecified), the TGI in the test on U251 CNS is 60 µM; with MOLT-4 leukemia, 57.5 µM; in the test on LOX IMVI melanoma, 47.3 µM; with MDA-MB-435 it was more than 100 µM; in the test on MDA-N, more than 100 µM; in the test on MCF7 breast, 66 µM. Besides, the TGI in the test with NCI-H226 lung, with 786-0 renal, in the test with UACC-257 melanoma and in the test with NCI-H460 lung was more than 100 µM each time.

Consider `CCn1c(=O)c2c3ccc(OC(C)=O)cc3[nH]c2c2ccc(OC(C)=O)cc21`, for which the TGI with U251 CNS is more than 100 µM; in the test on MOLT-4 leukemia, 74.5 µM; in the test on MDA-MB-435, more than 100 µM; in the test on MDA-N, more than 100 µM; in the test on MCF7 breast it was more than 100 µM; in the test on NCI-H226 lung, more than 100 µM. The TGI in the test on 786-0 renal, with UACC-257 melanoma and in the test with NCI-H460 lung was more than 100 µM in each case.

For the molecule `Cc1ccc(/C=N\NC(=O)c2ccncc2)s1`, the TGI in the test on RPMI-8226 leukemia, in the test on U251 CNS, in the test on MOLT-4 leukemia, in the test on MDA-MB-435, in the test on MDA-N and with MCF7 breast was more than 100 µM each time. The TGI in the test on NCI-H226 lung, with 786-0 renal, in the test on UACC-257 melanoma and with NCI-H460 lung was more than 100 µM each time.

For `COC(=O)c1cc(C)ccc1C1CN=NC12Cc1c(C)cc(C)cc1C2=O` (stereo unspecified), the TGI with U251 CNS was more than 100 µM; in the test with MOLT-4 leukemia, 56.2 µM; with LOX IMVI melanoma, 30.3 µM; with MDA-MB-435, more than 100 µM; with MDA-N, 42 µM; with MCF7 breast, 69.1 µM. Further, the TGI was 87.6 µM with NCI-H226 lung, more than 100 µM in the test with 786-0 renal, 69.7 µM in the test with UACC-257 melanoma and 42.7 µM in the test on NCI-H460 lung.

As for `COc1cc(S(=O)(=O)Nc2ccc(-c3csc(/N=C\c4ccccc4)n3)cc2)ccc1Cl`, the TGI in the test with RPMI-8226 leukemia is more than 100 µM; in the test on MOLT-4 leukemia, 52.1 µM; with LOX IMVI melanoma it was more than 100 µM; with MDA-MB-435, more than 100 µM; in the test on MDA-N, more than 100 µM; in the test on MCF7 breast, 49.9 µM. In addition, the TGI in the test on NCI-H226 lung and with 786-0 renal was more than 100 µM throughout.

Take `O=P(O)(O)C=C=C1CCCCC1`: the TGI in the test with U251 CNS, in the test with LOX IMVI melanoma, in the test with MDA-MB-435, in the test on MDA-N, with MCF7 breast and in the test with NCI-H226 lung was more than 100 µM in each case. The TGI in the test with 786-0 renal, in the test on UACC-257 melanoma and in the test on NCI-H460 lung was more than 100 µM throughout.

On to `C=CCOC1(CC=C)C(=O)OC2C(O)COC21O` (stereo unspecified), for which the TGI in the test on U251 CNS, with MOLT-4 leukemia, with LOX IMVI melanoma, in the test with MDA-MB-435, in the test with MDA-N and with MCF7 breast was more than 100 µM throughout. The TGI in the test with NCI-H226 lung, in the test with 786-0 renal, in the test with UACC-257 melanoma and with NCI-H460 lung was more than 100 µM in each case.

`COc1cccc(NC(=O)CC(=O)N2N=C(C)C(N=Nc3ccc(C(=O)O)cc3)C2=O)c1` (stereo unspecified): the TGI with RPMI-8226 leukemia, with LOX IMVI melanoma, in the test on MDA-MB-435, in the test on MDA-N, in the test on MCF7 breast and with 786-0 renal was more than 100 µM in each case. The TGI in the test with UACC-257 melanoma was more than 100 µM.

The values are drawn from PubChem BioAssay (NCI).
